Reference: patent publication US11230542B2, “Inhibitors of integrated stress response pathway” (Praxis Biotech LLC, priority 2017, dated 2022)

Key:
ATF4 = ATF4 expression inhibition assay (thapsigargin-stressed HEK293T cells, western blot); type: cell-based; settings: Homo sapiens, HEK-293T
How it was run: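 HEK293T cells treated with thapsigargin (Tg) plus test compound (100 nM or 1 μM) for 3 hours, then lysed; ATF4 measured by western blot with ECL and densitometry. % inhibition normalized to Tg alone (0%) and untreated cells (100%); IC50 also calculated.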

[1] = tested on: Balb/c mice with immobilized hindlimb; experiment: Immobilization-induced muscle atrophy; type: in vivo, mouse; settings: 10 mg/kg oral, 3 days immobilization
Method: Wild type eight-weeks-old male Balb/c mice obtained from the vivarium Fundacion Ciencia & Vida Chile (Santiago, Chile) were used. Mice were housed in independent plastic cages, fed ad libitum in a room maintained at 25° C. with a 12-h:12-h light:dark cycle.
Twenty-four hours before and during the 3 days of immobilization procedures, animals received oral administration via feeding tubes (15 gauge) of vehicle (50% Polyethylene glycol 400 (Sigma-Aldrich P3265) in distilled water or 10 mg/kg of compound 3 formulated in vehicle.
One hindlimb was immobilized with a plastic stick placed over and under the limb and fixed with a medical adhesive bandage. Animals were daily monitored. The immobilization procedure prevented movement of the immobilized leg alone. After 3 days, the animals were sacrificed and gastrocnemius, quadriceps and tibialis anterior muscles were removed from both hindlimbs, the contralateral, non-immobilized leg being used as an internal control. […]
Upon collection, muscles were immediately frozen in liquid nitrogen and then stored at −80° C. […] Protein concentration in supernatants was determined using BCA Protein Assay Kit (Pierce). […]
Puromycin (12D10) (Merck Millipore) and β-actin (Sigma-Aldrich) antibodies were used as primary antibodies. […] Quantification of protein bands was done by densitometry using ImageJ software. […]

[2] = tested on: 19-month old male C57Bl/6J mice; experiment: Learning memory in aged mice (8-arm radial water maze, hippocampal ATF4); type: in vivo, mouse; settings: 5 mg/kg intraperitoneally, versus vehicle
Description: Wild type 19-month old male C57Bl/6J mice were used in an 8-arm radial water maze (RAWM) to measure the hippocampal-mediated learning memory. The maze involved a pool 118.5 cm in diameter and 25 cm high with 8 arms, each 41 cm in length, and an escape platform that could be moved. The pool was filled with water that was rendered opaque by adding white paint (Crayola, 54-2128-053). The escape platform remains hidden during the experiment. Visual cues were placed around the room such that they were visible to animals exploring the maze. […]
Behavioral tests were recorded and scored using a video tracking and analysis setup (Ethovision XT 8.5, Noldus Information Technology). The program automatically analyzed the number of incorrect arm entries (termed number of errors) made per trial. […]
At the end of the behavioral test, animals were sacrificed and the hippocampi were extracted and immediately frozen in liquid nitrogen and then stored at −80° C. […] Protein concentration in supernatants was determined using BCA Protein Assay Kit (Pierce). […]
ATF4 (11815) antibody (Cell Signaling Technologies) and β-actin (Sigma-Aldrich) antibodies were used as primary antibodies. […] Quantification of protein bands was done by densitometry using ImageJ software.

Structure (SMILES): O=C(COc1ccc(Cl)cc1)N[C@H]1CC[C@H](NC[C@@H](O)COc2ccc(Cl)cc2)CC1 (single isomer, unassigned) [Compound 3, (+)-2-(4-chlorophenoxy)-N-(4-((3-(4-chlorophenoxy)-2-hydroxypropyl)amino)cyclohexyl)acetamide]
- IC50 (ATF4; 3 h with 100 nM Tg, test compound 1 nM to 1 μM): 145 nM
- inhibition at 0.1 µM (ATF4; 3 h with 100 nM thapsigargin (Tg) and 100 nM test compound, Tg alone 0%, untreated 100%): 35%
- inhibition at 1 µM (ATF4; 3 h with 100 nM thapsigargin (Tg) and 1 μM test compound, Tg alone 0%, untreated 100%): 77%
- protein synthesis in immobilized hindlimb muscle ([1]; gastrocnemius): partial recovery of protein synthesis
- protein synthesis in immobilized hindlimb muscle ([1]; tibialis anterior and quadriceps): complete recovery of protein synthesis
- ATF4 expression normalized to β-actin in hippocampi [2]: lower levels of ATF4 expression compared with vehicle-treated animals
- RAWM task performance (learning memory) [2]: performed better than vehicle-treated animals
